{
  "source": "patent US20200352912A1",
  "about": "“ANTIMICROBIAL COMPOSITIONS AND METHODS OF USING THE SAME” (The Board Of Supervisors Of Louisiana State University And …, priority 2018, published 2020)",
  "key": {"[1]": {"system": "clinical MRSA and MSSA strains isolated from a patient's catheter", "experiment": "planktonic antimicrobial assay, clinical isolates", "type": "cell-based, Staphylococcus aureus", "description": "Effect of COX enzyme inhibitors or PGE2 EP receptor antagonists on microbial growth. The antimicrobial activity of selective COX enzyme inhibitor or PGE2 EP receptor antagonist on the growth of C. albicans DAY185 (A), S. aureus NRS383 (B) and MRSA and MSSA clinical isolates (C). Growth of C. albicans and S. aureus was monitored for up to 24 h in medium alone or supplemented with DMSO or EP receptor antagonists or COX enzyme inhibitor at physiologically relevant concentrations. Data shown are representative of three independent experiments.\nStrains and growth conditions. The methicillin-resistant S. aureus strain NRS383 used in all experiments was obtained from the Network on Antimicrobial Resistance in S. aureus (NARSA) data bank. NRS383 is positive for the toxic shock syndrome toxin (tst) and 6-toxin genes. SJ-MRSA 6 and SJ-SA5 are methicillin-resistant (MRSA) and methicillin-sensitive (MSSA) clinical S. aureus strains respectively isolated from a patient's catheter. […]\nC. albicans and S. aureus were grown as described above. […] Cells were grown with shaking as described above, and 1 ml aliquots were removed each hour in duplicate and optical density at 600 nm measured (OD600) by spectrophotometer (Biomate 3S, Thermo Scientific)."}, "[2]": {"system": "E. coli", "experiment": "spectrum of activity, bacterial growth", "type": "cell-based, Escherichia coli", "conditions": "50 μg/ml, 6 h", "description": "Bacterial growth was monitored for 6 h in medium alone or supplemented with 50 μg/ml of L-161, 982. Data shown is representative of three independent experiments.\nStrains and growth conditions. The methicillin-resistant S. aureus strain NRS383 used in all experiments was obtained from the Network on Antimicrobial Resistance in S. aureus (NARSA) data bank. NRS383 is positive for the toxic shock syndrome toxin (tst) and 6-toxin genes. SJ-MRSA 6 and SJ-SA5 are methicillin-resistant (MRSA) and methicillin-sensitive (MSSA) clinical S. aureus strains respectively isolated from a patient's catheter. Other bacterial species used in this study include Escherichia coli (ATCC 25922, clinical isolate), S. epidermidis (ATCC 12228), Klebsiella pneumonia (ATCC 43816), Enterococcus faecalis (ATCC 51299, clinical isolate), and Streptococcus mutans (UA159, 12). S. mutans strain was maintained in brain heart infusion (BHI) broth while the other bacterial species were maintained in Luria-Bertani broth. Frozen stocks were obtained at −80° C. and streaked onto agar plates at 37° C. prior to use. A single colony was transferred to 10 ml of culture broth and shaken at 37° C. overnight. On the following day, the overnight culture was diluted 1:100 in fresh growth medium and shaken at 37° C. for 3 h to obtain cells in mid-log growth phase. S. mutans cultures were grown without agitation in the presence of 5% CO2. […]"}, "[3]": {"system": "pre-formed dual-species biofilm", "experiment": "pre-formed mature biofilm (XTT, CFU)", "type": "cell-based, C. albicans and S. aureus", "conditions": "100 and 200 μg/ml", "description": "The effect of L-161, 982 on pre-formed mature biofilms was tested. Mono- and dual-species C. albicans and/or S. aureus biofilms were grown on 96-well plates for 24 h before being treated with the indicated concentration of L-161, 982 for a further 24 h. After treatment, metabolic activity of biofilms was quantified by the XTT assay (A) and then biofilms were disrupted to determine live colony forming units (CFU) (B). The results are cumulative of three independent experiments with duplicate samples. Statistics were performed using One-way ANOVA with the Tukey post-hoc test for the XTT assay. The Mann-Whitney U test was used to analyze CFU data. Significance is indicated as follows: ns—not significant, *P<0.05; *** P<0.001. Error bars represent standard deviation.\nFollowing growth as described above, microbes were washed in phosphate-buffered saline (PBS) by centrifugation, counted on a hemocytometer, and adjusted to 2×10^7 CFU/ml in RPMI buffered with MOPS (165 mM). […]\nThe XTT reduction assay was used to determine the metabolic activity of biofilms following treatment with L-161, 982 (17). Briefly, wells were washed once in PBS, and plates incubated at 37° C. for 2 h with 200 μl XTT working reagent (0.5 mg/ml XTT and 1 μM Menadione) and the resulting absorbance measured at 490 nm on a microplate spectrophotometer. […]"}, "[4]": {"system": "LPS-activated human macrophages", "conditions": "100 nM; cited from earlier work"}},
  "data": [
    {"smiles": "CCCCc1nn(-c2ccccc2C(F)(F)F)c(=O)n1Cc1ccc(-c2ccccc2S(=O)(=O)NC(=O)c2sccc2C)cc1", "note": "[L-161, 982, N-[[4′-[[3-Butyl-1,5-dihydro-5-oxo-1-[2-(trifluoromethyl)phenyl]-4H-1,2,4-triazol-4-yl]methyl][1,1′-biphenyl]-2-yl]sulfonyl]-3-methyl-2-thiophenecarboxamide]", "values": [
      {"measurement": "growth of clinical MRSA and MSSA strains", "setting": "[1]", "result": "inhibited growth"},
      {"measurement": "growth inhibitory activity", "setting": "[2]", "result": "No inhibitory effects"},
      {"measurement": "S. aureus CFUs recovered from pre-formed dual-species biofilm", "setting": "[3]", "result": "no CFUs were recovered"},
      {"measurement": "effect on anti-inflammatory action of PGE2", "setting": "[4]", "result": "reverses the anti-inflammatory action of PGE2"}
    ]}
  ]
}
